Results reported in US20170008888A1 (KYORIN PHARMACEUTICAL CO., LTD., priority 2014, published 2017).
Values belong to the compound of their own block, whether it stands above or below them.

Key:
human PBMCs = experiment: Human PBMC TNF-α response to endotoxin (ELISA); format: cell-based; conditions: 0.1 μg/ml LPS 16 h, read-out: EC50 for the inhibition of the human PBMC TNF-α response to endotoxin, ave. ± S.D.
Protocol: Human PBMCs (Astarte Biologics, Redmond, Wash.) were seeded at 2e6 cells/ml in RPMI 1640 containing 10% (v/v) charcoal-dextran treated, heat inactivated FBS (Omega Scientific, Tarzana, Calif.), 0.05 mM 2-Mercaptoethanol (Sigma-Aldrich, St. Louis, Mo.), and 1×Pen/Strep Amphotericin B (Lonza, Allendale, N.J.). Cells were pre-treated with test compounds (10 μM down by ⅕ in a 4-point serial dilution series) for 1 h at 37° C. in a humidified atmosphere at 5% CO2. Cells were then stimulated with 0.1 μg/ml lipopolysaccharide (LPS) from E. coli 0111:B4 (EMD Millipore, Billerica, Mass.) for 16 h at 37° C. in a humidified atmosphere at 5% CO2. Supernatant was collected and a 25-fold dilution was analyzed for TNF-α concentration using an ELISA kit from Life Technologies (Grand Island, N.Y.) according to the manufacturer's instructions. Absorbance at 450 nm was read using the Synergy 2 multi-detection microplate reader (BioTek Instruments, Winooski, Vt.).

ERK5 = biological target: T1, ERK5 (Homo sapiens, UniProt Q13164); experiment: Probe-based (AX9989 acyl phosphate ATP probe) kinase profiling in Jurkat lysate: ERK5; format: binding; conditions: for IC50: calculated from percent inhibition of AX9989 labeling and the screening concentration, Jurkat lysate; for inhibition at 1 µM: screening concentration 1.0 μM, read-out: Kinase inhibition % at indicated screening concentration: ERK5
T1 construct: screened for activity against several kinases in Jurkat cells; endogenous in cells; host or cells: Jurkat cell lysate
Protocol: (§1) In this example, potency of the compounds as ERK5 inhibitors was assessed, and the compounds were screened for activity against several kinases in Jurkat cells.
(§2) Jurkat cell pellets were resuspended in four volumes of lysis buffer (50 mM HEPES pH 7.5, 150 mM NaCl, 0.1% Triton-X-100, 1% v/v phosphatase, inhibitor cocktail II [EMD/Calbiochem, #524625]), sonicated using a tip, sonicator, and Dounce homogenized. Lysate was cleared by centrifugation, at 16,000 g for 15 min., was gel filtered (BioRad 10DG) and MnCl2 was then added to a final concentration of 20 mM before treatment with the test compound and probe labeling. […] All compound treatments were performed at room temperature.
(§3) Acyl phosphate ATP probe (AX9989) labeling reactions were performed at room temperature with a final probe concentration of 5 μM after a 15 min pre-incubation of lysate with a test compound. All reactions were performed in duplicate, using 445 μl/sample at 5 mg/ml. Probe-labeled lysates were denatured and reduced (6 M urea, 10 mM DTT, 65° C., 15 min), alkylated (40 mM iodoacetamide, 37° C., 30 min, and gel filtered (Sephadex G25) into 10 mM ammonium bicarbonate, 2 M urea, 5 mM methionine. The desalted protein mixture was digested with trypsin (0.015 mg/ml) for 1 hr at 37° C., and desthiobiotinylated peptides were captured using a […] high-capacity streptavidin resin (Thermo Scientific). Captured peptides were then washed extensively using 150 μl/wash with three different wash buffers: (A) 3 times with 1% triton, 0.5% tergitol, 1 mM EDTA in PBS; (B) 18 times with PBS; and (C) 8 times with HPLC grade water. Peptides were eluted from the streptavidin beads using two 35-μL washes of a 50% CH3CN/water mixture containing 0.1% TFA at room temperature.
(§4) Kinase active site peptides were identified and quantified using LC/MS. Percent inhibition was calculated as the normalized decrease in the ESI-MS fragment intensities of probe-labeled peptides in samples incubated with the test compound compared to those without.
ERK5 IC50 values were calculated from the percent inhibition and the screening concentration.

ACK = biological target: T2, ACK (Homo sapiens, UniProt Q07912); experiment: Probe-based (AX9989) kinase profiling in Jurkat lysate: ACK; format: binding; conditions: screening concentration 1.0 μM; read-out: Kinase inhibition % at indicated screening concentration: ACK
T2 construct: screened for activity against several kinases in Jurkat cells; endogenous in cells; host or cells: Jurkat cell lysate
Protocol: as §1, §2, §3, §4

ABL or ARG = experiment: Probe-based (AX9989) kinase profiling in Jurkat lysate: ABL or ARG; format: binding; conditions: screening concentration 1.0 μM
Protocol: as §1, §2, §3, §4

AurA = biological target: T3, AurA (Homo sapiens, UniProt O14965); experiment: Probe-based (AX9989) kinase profiling in Jurkat lysate: AurA; format: binding; conditions: screening concentration 1.0 μM; read-out: Kinase inhibition % at indicated screening concentration: AurA
T3 construct: screened for activity against several kinases in Jurkat cells; endogenous in cells; host or cells: Jurkat cell lysate
T3 sequence (O14965 1-403): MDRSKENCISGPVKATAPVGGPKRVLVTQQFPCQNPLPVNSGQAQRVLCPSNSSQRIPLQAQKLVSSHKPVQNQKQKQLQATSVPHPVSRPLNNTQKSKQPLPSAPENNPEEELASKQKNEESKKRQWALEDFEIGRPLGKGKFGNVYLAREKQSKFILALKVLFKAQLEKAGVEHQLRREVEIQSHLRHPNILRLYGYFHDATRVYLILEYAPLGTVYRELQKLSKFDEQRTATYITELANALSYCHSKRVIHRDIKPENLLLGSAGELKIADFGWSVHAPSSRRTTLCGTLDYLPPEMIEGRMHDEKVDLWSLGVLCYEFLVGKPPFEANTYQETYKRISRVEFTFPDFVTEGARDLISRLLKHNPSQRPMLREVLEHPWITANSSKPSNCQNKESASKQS
Protocol: as §1, §2, §3, §4

TAO2 = biological target: T4, TAO2 (Homo sapiens, UniProt Q9UL54); experiment: Probe-based (AX9989) kinase profiling in Jurkat lysate: TAO2; format: binding; conditions: screening concentration 1.0 μM; read-out: Kinase inhibition % at indicated screening concentration: TAO2
T4 construct: screened for activity against several kinases in Jurkat cells; endogenous in cells; host or cells: Jurkat cell lysate
T4 sequence (Q9UL54 1-1235): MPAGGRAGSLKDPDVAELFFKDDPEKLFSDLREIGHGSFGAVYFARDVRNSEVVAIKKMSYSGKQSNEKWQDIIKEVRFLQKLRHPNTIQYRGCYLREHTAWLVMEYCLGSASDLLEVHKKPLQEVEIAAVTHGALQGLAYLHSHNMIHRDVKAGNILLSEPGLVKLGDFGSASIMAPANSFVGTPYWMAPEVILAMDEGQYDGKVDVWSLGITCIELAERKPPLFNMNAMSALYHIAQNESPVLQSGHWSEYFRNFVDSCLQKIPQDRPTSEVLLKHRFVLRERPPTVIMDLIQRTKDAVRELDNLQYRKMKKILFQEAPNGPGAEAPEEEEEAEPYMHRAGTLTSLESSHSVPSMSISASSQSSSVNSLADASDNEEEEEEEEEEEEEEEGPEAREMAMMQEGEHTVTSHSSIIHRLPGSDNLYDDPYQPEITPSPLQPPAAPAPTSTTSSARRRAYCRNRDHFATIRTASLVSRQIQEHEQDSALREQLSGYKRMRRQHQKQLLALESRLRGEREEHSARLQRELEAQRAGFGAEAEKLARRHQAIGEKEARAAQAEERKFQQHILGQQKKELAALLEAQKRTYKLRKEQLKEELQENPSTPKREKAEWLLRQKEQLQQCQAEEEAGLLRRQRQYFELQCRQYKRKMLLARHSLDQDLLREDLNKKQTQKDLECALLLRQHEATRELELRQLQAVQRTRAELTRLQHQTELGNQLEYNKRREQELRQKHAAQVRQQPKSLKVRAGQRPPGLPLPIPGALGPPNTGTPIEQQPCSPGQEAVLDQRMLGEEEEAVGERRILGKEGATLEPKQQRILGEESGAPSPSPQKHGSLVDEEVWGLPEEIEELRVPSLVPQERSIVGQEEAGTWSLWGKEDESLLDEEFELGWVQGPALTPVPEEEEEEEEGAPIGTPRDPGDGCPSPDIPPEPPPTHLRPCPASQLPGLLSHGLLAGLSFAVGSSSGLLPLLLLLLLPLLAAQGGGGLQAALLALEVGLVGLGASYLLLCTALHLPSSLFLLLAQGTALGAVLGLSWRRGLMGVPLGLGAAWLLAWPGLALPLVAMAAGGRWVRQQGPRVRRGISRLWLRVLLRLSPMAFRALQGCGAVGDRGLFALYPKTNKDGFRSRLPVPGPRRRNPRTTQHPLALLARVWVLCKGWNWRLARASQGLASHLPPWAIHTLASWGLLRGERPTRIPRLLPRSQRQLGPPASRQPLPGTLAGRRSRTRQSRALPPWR
Protocol: as §1, §2, §3, §4

AurB or AurC = experiment: Probe-based (AX9989) kinase profiling in Jurkat lysate: AurB or AurC; format: binding; conditions: screening concentration 1.0 μM
Protocol: as §1, §2, §3, §4

AMPKa1 or AMPKa2 = experiment: Probe-based (AX9989) kinase profiling in Jurkat lysate: AMPKa1 or AMPKa2; format: binding; conditions: screening concentration 1.0 μM
Protocol: as §1, §2, §3, §4

JAK1 = biological target: T5, JAK1 (Homo sapiens, UniProt P23458); experiment: Probe-based (AX9989) kinase profiling in Jurkat lysate: JAK1; format: binding; conditions: screening concentration 1.0 μM; read-out: Kinase inhibition % at indicated screening concentration: JAK1
T5 construct: screened for activity against several kinases in Jurkat cells; endogenous in cells; host or cells: Jurkat cell lysate
Protocol: as §1, §2, §3, §4

T5 sequence (P23458 whole entry): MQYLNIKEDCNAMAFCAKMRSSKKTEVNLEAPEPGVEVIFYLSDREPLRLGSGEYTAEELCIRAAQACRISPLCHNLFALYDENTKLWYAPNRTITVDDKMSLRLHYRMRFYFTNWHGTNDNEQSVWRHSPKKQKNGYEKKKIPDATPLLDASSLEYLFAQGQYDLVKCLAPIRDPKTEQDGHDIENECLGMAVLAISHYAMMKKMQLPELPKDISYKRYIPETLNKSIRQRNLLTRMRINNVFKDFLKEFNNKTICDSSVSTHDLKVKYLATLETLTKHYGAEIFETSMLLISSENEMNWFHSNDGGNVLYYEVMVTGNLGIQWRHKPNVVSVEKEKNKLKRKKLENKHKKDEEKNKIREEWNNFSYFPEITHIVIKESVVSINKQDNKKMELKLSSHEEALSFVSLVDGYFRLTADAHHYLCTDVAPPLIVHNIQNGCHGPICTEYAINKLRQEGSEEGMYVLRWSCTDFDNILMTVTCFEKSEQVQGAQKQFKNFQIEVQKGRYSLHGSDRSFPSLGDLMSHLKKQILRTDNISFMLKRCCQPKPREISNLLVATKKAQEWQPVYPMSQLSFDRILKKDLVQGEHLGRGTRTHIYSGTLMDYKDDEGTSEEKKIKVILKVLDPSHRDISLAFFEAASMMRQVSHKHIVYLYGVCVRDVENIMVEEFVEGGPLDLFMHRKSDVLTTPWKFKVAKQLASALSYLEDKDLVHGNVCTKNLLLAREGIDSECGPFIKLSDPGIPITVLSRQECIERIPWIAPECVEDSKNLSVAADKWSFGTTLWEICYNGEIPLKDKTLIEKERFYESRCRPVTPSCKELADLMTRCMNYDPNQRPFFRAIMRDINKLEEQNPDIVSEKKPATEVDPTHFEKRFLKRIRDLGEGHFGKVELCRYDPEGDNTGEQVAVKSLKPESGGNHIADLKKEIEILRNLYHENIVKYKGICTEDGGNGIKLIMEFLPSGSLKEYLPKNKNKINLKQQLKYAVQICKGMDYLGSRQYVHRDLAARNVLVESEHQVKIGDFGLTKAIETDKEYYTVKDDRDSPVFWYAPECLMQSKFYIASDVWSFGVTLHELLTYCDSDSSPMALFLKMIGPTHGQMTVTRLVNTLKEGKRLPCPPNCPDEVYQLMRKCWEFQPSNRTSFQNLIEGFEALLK
T2 sequence (Q07912 whole entry): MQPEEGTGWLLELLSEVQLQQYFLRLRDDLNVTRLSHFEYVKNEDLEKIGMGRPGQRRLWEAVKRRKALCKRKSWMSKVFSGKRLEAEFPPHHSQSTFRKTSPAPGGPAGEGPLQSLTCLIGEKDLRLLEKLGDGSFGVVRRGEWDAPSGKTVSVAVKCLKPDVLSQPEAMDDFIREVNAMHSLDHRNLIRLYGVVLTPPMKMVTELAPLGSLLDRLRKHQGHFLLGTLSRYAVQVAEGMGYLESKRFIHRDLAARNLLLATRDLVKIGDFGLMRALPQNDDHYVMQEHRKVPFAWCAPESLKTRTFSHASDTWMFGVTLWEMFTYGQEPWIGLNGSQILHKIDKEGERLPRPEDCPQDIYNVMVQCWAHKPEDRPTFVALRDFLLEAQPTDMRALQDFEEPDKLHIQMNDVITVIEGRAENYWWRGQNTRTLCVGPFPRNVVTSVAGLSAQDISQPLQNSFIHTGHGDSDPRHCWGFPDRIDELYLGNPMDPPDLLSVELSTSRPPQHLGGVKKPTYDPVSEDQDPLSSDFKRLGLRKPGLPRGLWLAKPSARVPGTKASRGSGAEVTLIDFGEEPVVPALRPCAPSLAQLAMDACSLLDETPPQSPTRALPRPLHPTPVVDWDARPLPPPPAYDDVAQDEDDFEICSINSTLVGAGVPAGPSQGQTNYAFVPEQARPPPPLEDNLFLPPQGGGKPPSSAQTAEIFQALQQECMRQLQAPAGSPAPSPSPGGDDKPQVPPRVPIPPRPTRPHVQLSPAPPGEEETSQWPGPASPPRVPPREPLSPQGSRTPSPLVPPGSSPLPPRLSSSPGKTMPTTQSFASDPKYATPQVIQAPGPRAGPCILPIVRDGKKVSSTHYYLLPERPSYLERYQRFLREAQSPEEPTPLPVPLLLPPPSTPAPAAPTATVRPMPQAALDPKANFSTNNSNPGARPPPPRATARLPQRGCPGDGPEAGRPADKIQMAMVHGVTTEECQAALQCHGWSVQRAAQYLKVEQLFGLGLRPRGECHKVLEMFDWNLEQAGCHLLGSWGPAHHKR
T1 sequence (Q13164 whole entry): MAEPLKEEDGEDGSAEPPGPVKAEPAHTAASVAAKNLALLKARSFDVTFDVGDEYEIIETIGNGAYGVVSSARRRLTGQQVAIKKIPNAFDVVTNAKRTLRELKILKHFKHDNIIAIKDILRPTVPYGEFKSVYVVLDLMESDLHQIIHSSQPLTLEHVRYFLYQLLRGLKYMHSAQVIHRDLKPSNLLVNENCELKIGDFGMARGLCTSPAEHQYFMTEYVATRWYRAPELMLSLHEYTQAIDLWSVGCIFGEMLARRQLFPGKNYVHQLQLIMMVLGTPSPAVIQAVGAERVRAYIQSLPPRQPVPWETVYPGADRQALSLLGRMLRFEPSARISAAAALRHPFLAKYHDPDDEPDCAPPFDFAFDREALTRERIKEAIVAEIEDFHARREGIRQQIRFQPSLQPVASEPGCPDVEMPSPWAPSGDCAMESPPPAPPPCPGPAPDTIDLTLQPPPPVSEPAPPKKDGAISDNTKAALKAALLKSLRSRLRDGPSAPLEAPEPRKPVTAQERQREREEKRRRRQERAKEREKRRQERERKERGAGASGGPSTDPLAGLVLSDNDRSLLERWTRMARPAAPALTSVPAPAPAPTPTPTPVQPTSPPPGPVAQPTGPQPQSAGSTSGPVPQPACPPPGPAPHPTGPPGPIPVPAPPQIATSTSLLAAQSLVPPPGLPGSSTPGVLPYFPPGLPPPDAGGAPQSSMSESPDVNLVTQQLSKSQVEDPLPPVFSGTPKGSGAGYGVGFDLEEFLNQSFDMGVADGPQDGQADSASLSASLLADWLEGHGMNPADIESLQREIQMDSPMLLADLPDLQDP

IC50 (ERK5): > 0.5 µM
inhibition at 1 µM (ERK5): 35 to 50%
Compound: Cc1ccc(Nc2cc3c(cn2)N(C)C(=O)c2ccccc2N3C)c(C)c1 [Compound 3]
EC50 (human PBMCs): 4.23 µM

inhibition at 1 µM (ACK): ≤ 35%
Kinase inhibition % at indicated screening concentration: ABL or ARG (ABL or ARG): E (E is ≦35%)
inhibition at 1 µM (AurA): ≤ 35%
inhibition at 1 µM (TAO2): ≤ 35%
Kinase inhibition % at indicated screening concentration: AurB or AurC (AurB or AurC): E (E is ≦35%)
IC50 (ERK5): > 0.5 µM
inhibition at 1 µM (ERK5): 50 to 75%
Kinase inhibition % at indicated screening concentration: AMPKa1 or AMPKa2 (AMPKa1 or AMPKa2): E (E is ≦35%)
inhibition at 1 µM (JAK1): ≤ 35%
Compound: CCOc1ccccc1Nc1cc2c(cn1)N(C)C(=O)c1ccccc1N2C [Compound 13]

inhibition at 1 µM (ACK): ≤ 35%
Kinase inhibition % at indicated screening concentration: ABL or ARG (ABL or ARG): E (E is ≦35%)
inhibition at 1 µM (AurA): ≤ 35%
inhibition at 1 µM (TAO2): ≤ 35%
Kinase inhibition % at indicated screening concentration: AurB or AurC (AurB or AurC): E (E is ≦35%)
IC50 (ERK5): > 0.5 µM
inhibition at 1 µM (ERK5): 50 to 75%
Kinase inhibition % at indicated screening concentration: AMPKa1 or AMPKa2 (AMPKa1 or AMPKa2): E (E is ≦35%)
inhibition at 1 µM (JAK1): ≤ 35%
Compound: CCOc1cc(C(=O)O)ccc1Nc1cc2c(cn1)N(C)C(=O)c1ccccc1N2C [Compound 18, 4-(5,11-Dimethyl-10-oxo-10,11-dihydro-5H-benzo[e]pyrido[3,4-b][1,4]diazepin-3-ylamino)-3-ethoxybenzoic acid]

inhibition at 1 µM (ACK): ≤ 35%
Kinase inhibition % at indicated screening concentration: ABL or ARG (ABL or ARG): E (E is ≦35%)
inhibition at 1 µM (AurA): ≤ 35%
inhibition at 1 µM (TAO2): ≤ 35%
Kinase inhibition % at indicated screening concentration: AurB or AurC (AurB or AurC): E (E is ≦35%)
IC50 (ERK5): > 0.5 µM
inhibition at 1 µM (ERK5): 50 to 75%
Kinase inhibition % at indicated screening concentration: AMPKa1 or AMPKa2 (AMPKa1 or AMPKa2): E (E is ≦35%)
inhibition at 1 µM (JAK1): ≤ 35%
Compound: COc1ccccc1Nc1cc2c(cn1)N(C)C(=O)c1ccccc1N2C [Compound 19]

Compound: CCOc1cc(C(=O)N(C)C)ccc1Nc1cc2c(cn1)N(C)C(=O)c1ccccc1N2C [Compound 117]
EC50 (human PBMCs): 1.49 µM

Compound: CCN(CC)CCN(C)C(=O)c1ccc(OC)c(Nc2cc3c(cn2)N(C)C(=O)c2ccccc2N3C)c1 [Compound 118]
EC50 (human PBMCs): 3.32 µM

Compound: CCN(CC)CCN(C)C(=O)c1cccc(Nc2cc3c(cn2)N(C)C(=O)c2ccccc2N3C)c1OC [Compound 119]
EC50 (human PBMCs): 3.96 µM

Compound: CCOc1cc(C(=O)N(CCO)CCO)ccc1Nc1cc2c(cn1)N(C)C(=O)c1ccccc1N2C [Compound 121]
EC50 (human PBMCs): 0.95 µM

Compound: CCOc1cc(C(=O)N2CC[C@@H](NC3CCN(C)CC3)C2)ccc1Nc1cc2c(cn1)N(C)C(=O)c1ccccc1N2C [Compound T60]
EC50 (human PBMCs): 0.95 µM

Compound: CCOc1cc(C(=O)N[C@H]2CC[C@H](O)CC2)ccc1Nc1cc2c(cn1)N(C)C(=O)c1ccccc1S2 [Compound T90]
EC50 (human PBMCs): > 15 µM

Compound: CCOc1cc(C(=O)N[C@H]2CC[C@H](O)CC2)ccc1Nc1cc2c(cn1)N(C)C(=O)c1ccccc1S2(=O)=O [Compound T91]
EC50 (human PBMCs): > 15 µM

Compound: CCOc1cc(C(=O)N2CCN(C3CCN(C)CC3)CC2)ccc1Nc1cc2c(cn1)N(C)C(=O)c1ccccc1S2(=O)=O [Compound T101]
EC50 (human PBMCs): > 15 µM
